The target in this series is APP. The series can be described thus: mouse, dose not given. The settings on record: ASO.

HELM strings list units from the 5' end as sugar, base in round brackets, then linkage (d deoxyribose, r ribose, m 2'-O-methyl, p phosphodiester). Strings are as the collection lists them; they lack the last nucleoside at the 3' end of the tested compound. [moe] = 2'-O-(2-methoxyethyl) (MOE); [sp] = phosphorothioate linkage; [m5C] = 5-methylcytosine

In the case of “RNA1{[moe]([m5C])[sp].[moe](T)p.[moe]([m5C])p.[moe](T)p.[moe]([m5C])p.[moe](A)[sp].d(T)[sp].d(A)[sp].d(G)[sp].d(T)[sp].d([m5C])[sp].d(T)[sp].d(T)[sp].d(A)[sp].d(A)[sp].d(T)[sp].[moe](T)p.[moe]([m5C])[sp].[moe]([m5C])}$$$$ (last 3' nucleoside missing)”, the 3 h FOB score came out at 0.75 score 0-7. The substance “RNA1{[moe]([m5C])[sp].[moe](T)p.[moe]([m5C])p.[moe]([m5C])p.[moe](A)[sp].d(A)[sp].d(T)[sp].d(T)[sp].d(T)[sp].d(T)[sp].d(A)[sp].d(A)[sp].d([m5C])[sp].d(T)[sp].d(T)[sp].[moe](G)p.[moe]([m5C])p.[moe](A)[sp].[moe]([m5C])}$$$$ (last 3' nucleoside missing)” had a 3 h FOB score of 2.75 score 0-7. Regarding “RNA1{[moe]([m5C])[sp].[moe](T)p.[moe]([m5C])p.[moe]([m5C])p.[moe](A)p.[moe](A)[sp].d(T)[sp].d(T)[sp].d(T)[sp].d(T)[sp].d(A)[sp].d(A)[sp].d([m5C])[sp].d(T)[sp].d(T)[sp].d(G)[sp].[moe]([m5C])p.[moe](A)[sp].[moe]([m5C])}$$$$ (last 3' nucleoside missing)”, the 3 h FOB score was found to be 0 score 0-7.

Consider “RNA1{[moe]([m5C])[sp].[moe]([m5C])[sp].[moe]([m5C])p.[moe](A)p.[moe]([m5C])[sp].d(T)[sp].d(T)[sp].d([m5C])[sp].d([m5C])[sp].d([m5C])[sp].d(A)[sp].d(T)[sp].d(T)[sp].d([m5C])[sp].d(T)[sp].[moe](G)p.[moe](G)p.[moe](A)[sp].[moe]([m5C])}$$$$ (last 3' nucleoside missing)”, for which the 3 h FOB score worked out at 0 score 0-7. In the case of “RNA1{[moe]([m5C])[sp].[moe]([m5C])p.[moe](A)p.[moe](A)p.[moe](A)[sp].d(G)[sp].d(A)[sp].d(T)[sp].d(T)[sp].d([m5C])[sp].d([m5C])[sp].d(A)[sp].d([m5C])[sp].d(T)[sp].d(T)[sp].[moe](T)p.[moe]([m5C])p.[moe](T)[sp].[moe]([m5C])}$$$$ (last 3' nucleoside missing)” it was 0 score 0-7; in that of “RNA1{[moe]([m5C])[sp].[moe]([m5C])p.[moe](A)p.[moe](A)p.[moe](G)[sp].d(T)[sp].d(A)[sp].d(T)[sp].d(T)[sp].d(T)[sp].d(T)[sp].d([m5C])[sp].d([m5C])[sp].d(T)[sp].d(G)[sp].[moe]([m5C])p.[moe](A)p.[moe](T)[sp].[moe]([m5C])}$$$$ (last 3' nucleoside missing)”, 0 score 0-7; in that of “RNA1{[moe]([m5C])[sp].[moe]([m5C])p.[moe](A)p.[moe](T)p.[moe]([m5C])[sp].d(T)[sp].d(T)[sp].d(T)[sp].d(A)[sp].d(T)[sp].d(T)[sp].d([m5C])[sp].d(T)[sp].d(A)[sp].d(T)[sp].[moe](G)p.[moe](A)p.[moe](G)[sp].[moe]([m5C])}$$$$ (last 3' nucleoside missing)”, 0.75 score 0-7. As for “RNA1{[moe]([m5C])[sp].[moe]([m5C])p.[moe](A)p.[moe](T)p.[moe]([m5C])[sp].d(T)[sp].d(T)[sp].d([m5C])[sp].d(A)[sp].d([m5C])[sp].d(T)[sp].d(T)[sp].d([m5C])[sp].d(A)[sp].d(G)[sp].[moe](A)p.[moe](G)p.[moe](A)[sp].[moe](T)}$$$$ (last 3' nucleoside missing)”, the 3 h FOB score was determined as 0.5 score 0-7. The same measure for “RNA1{[moe]([m5C])[sp].[moe]([m5C])p.[moe](A)p.[moe]([m5C])p.[moe](G)[sp].d(A)[sp].d([m5C])[sp].d([m5C])[sp].d(T)[sp].d(T)[sp].d(A)[sp].d([m5C])[sp].d(A)[sp].d([m5C])[sp].d(T)[sp].[moe](A)p.[moe](G)p.[moe](G)[sp].[moe](T)}$$$$ (last 3' nucleoside missing)”: 0 score 0-7; for “RNA1{[moe]([m5C])[sp].[moe]([m5C])p.[moe](T)p.[moe](T)p.[moe](G)[sp].d([m5C])[sp].d(T)[sp].d(A)[sp].d(T)[sp].d(T)[sp].d([m5C])[sp].d(A)[sp].d(T)[sp].d(T)[sp].d(T)[sp].[moe](T)p.[moe](T)p.[moe]([m5C])[sp].[moe](A)}$$$$ (last 3' nucleoside missing)”: 0 score 0-7. The same measure for “RNA1{[moe]([m5C])[sp].[moe]([m5C])p.[moe](T)p.[moe](T)p.[moe](T)[sp].d(G)[sp].d(T)[sp].d(T)[sp].d(T)[sp].d(G)[sp].d(A)[sp].d(A)[sp].d([m5C])[sp].d([m5C])[sp].d([m5C])[sp].[moe](A)p.[moe]([m5C])p.[moe](A)[sp].[moe](T)}$$$$ (last 3' nucleoside missing)”: 0 score 0-7; for “RNA1{[moe]([m5C])[sp].[moe]([m5C])p.[moe](T)p.[moe](T)p.[moe](T)[sp].d([m5C])[sp].d(A)[sp].d(A)[sp].d(T)[sp].d(A)[sp].d(T)[sp].d(T)[sp].d(G)[sp].d(T)[sp].d(T)[sp].[moe]([m5C])p.[moe](T)p.[moe](T)[sp].[moe]([m5C])}$$$$ (last 3' nucleoside missing)”: 3.33 score 0-7; for “RNA1{[moe]([m5C])[sp].[moe]([m5C])p.[moe](T)p.[moe](T)p.[moe]([m5C])[sp].d(T)[sp].d(T)[sp].d(A)[sp].d([m5C])[sp].d(A)[sp].d(A)[sp].d(T)[sp].d(T)[sp].d(A)[sp].d(T)[sp].[moe](G)p.[moe]([m5C])p.[moe](T)[sp].[moe]([m5C])}$$$$ (last 3' nucleoside missing)”: 1 score 0-7.

The substance “RNA1{[moe]([m5C])[sp].[moe]([m5C])p.[moe](T)p.[moe]([m5C])p.[moe](T)[sp].d(G)[sp].d([m5C])[sp].d(T)[sp].d(A)[sp].d([m5C])[sp].d(T)[sp].d(T)[sp].d([m5C])[sp].d(T)[sp].d(A)[sp].[moe]([m5C])p.[moe](T)p.[moe](A)[sp].[moe]([m5C])}$$$$ (last 3' nucleoside missing)” registered a 3 h FOB score of 1 score 0-7. The same measure for “RNA1{[moe]([m5C])[sp].[moe]([m5C])p.[moe]([m5C])p.[moe](A)p.[moe]([m5C])[sp].d(T)[sp].d(T)[sp].d([m5C])[sp].d([m5C])[sp].d([m5C])[sp].d(A)[sp].d(T)[sp].d(T)[sp].d([m5C])[sp].d(T)[sp].[moe](G)p.[moe](G)p.[moe](A)[sp].[moe]([m5C])}$$$$ (last 3' nucleoside missing)”: 0.5 score 0-7.

These data come from the OligoGym collection.
